Data as given in ChEMBL document CHEMBL6127012, “Discovery of DS-1093a: An oral hypoxia-inducible factor prolyl hydroxylase inhibitor for the treatment of renal anemia” (Bioorg Med Chem Lett, 2024).

Experiments:
cells = conditions: Homo sapiens, Hep3B
Description: Induction of EPO production in human Hep3B cells

[1] = Toxicity in rat assessed as increase in AST level […] at 100 mg/kg, po measured on day 4 (reference value: 71 IU/L); format: organism-based; conditions: in vivo, 96 h, time 4 day
[2] = AUC (0 to 24 hrs) in rat at 10 mg/kg, po measured on day 4; format: ADME, organism-based; conditions: in vivo, time 4 day
[3] = AUC (0 to 24 hrs) in rat at 100 mg/kg, po measured on day 4; format: ADME, organism-based; conditions: in vivo, time 4 day
[4] = Toxicity in rat assessed as increase in ALT level […] at 100 mg/kg, po measured on day 4 (reference value: 38 IU/L); format: organism-based; conditions: in vivo, 96 h, time 4 day
[5] = Toxicity in rat assessed as increase in ALT level […] at 10 mg/kg, po measured on day 4 (reference value: 38 IU/L); format: organism-based; conditions: in vivo, 96 h, time 4 day
Cynomolgus monkey = experiment: Anti-leukemia activity in cynomolgus monkey assessed as dose required to cause 10 fold increase in plasma EPO level
[6] = Toxicity in rat assessed as increase in AST level […] at 10 mg/kg, po measured on day 4 (reference value: 71 IU/L); format: organism-based; conditions: in vivo, 96 h, time 4 day
[7] = Toxicity in rat assessed as NOAEL at 10 mg/kg, po measured for 14 days; format: organism-based; conditions: in vivo, 336 h, time 14 day
[8] = Plasma protein binding in rat assessed as free fraction; format: ADME, cell-free
[9] = Half life in rat at 3 mg/kg, po measured on day 4; format: ADME, organism-based; conditions: in vivo, time 4 day
Rattus norvegicus = experiment: Hematopoietic effect on adenine-induced renal anemia po dosed rat model assessed as increase in hemoglobin level administered for 4 days and measured on day 5,7,9,11 and 14; format: functional, organism-based; conditions: dose 0.3-3 mg/kg, time 4.0 day
[10] = AUC in rat at 3 mg/kg, po measured on day 4; format: ADME, organism-based; conditions: in vivo, time 4 day
[11] = AUC (0 to 24 hrs) in rat at 10 mg/kg, po measured for 14 days; format: ADME, organism-based; conditions: in vivo, time 14 day
[12] = AUC (0 to 24 hrs) in rat at 0.54 mg/kg, po measured for 14 days; format: ADME, organism-based; conditions: in vivo, time 14 day
[13] = Cmax in rat at 3 mg/kg, po measured on day 4; format: ADME, organism-based; conditions: in vivo, time 4 day
[14] = Metabolic stability in rat plasma assessed as parent compound remaining; format: ADME, cell-free
[15] = Lipophilicity, logD of the compound; format: physicochemical; conditions: octanol/water
Egl nine homolog 1 = Egl nine homolog 1 (Homo sapiens, UniProt Q9GZT9)
Chain of Egl nine homolog 1 (Q9GZT9 whole entry): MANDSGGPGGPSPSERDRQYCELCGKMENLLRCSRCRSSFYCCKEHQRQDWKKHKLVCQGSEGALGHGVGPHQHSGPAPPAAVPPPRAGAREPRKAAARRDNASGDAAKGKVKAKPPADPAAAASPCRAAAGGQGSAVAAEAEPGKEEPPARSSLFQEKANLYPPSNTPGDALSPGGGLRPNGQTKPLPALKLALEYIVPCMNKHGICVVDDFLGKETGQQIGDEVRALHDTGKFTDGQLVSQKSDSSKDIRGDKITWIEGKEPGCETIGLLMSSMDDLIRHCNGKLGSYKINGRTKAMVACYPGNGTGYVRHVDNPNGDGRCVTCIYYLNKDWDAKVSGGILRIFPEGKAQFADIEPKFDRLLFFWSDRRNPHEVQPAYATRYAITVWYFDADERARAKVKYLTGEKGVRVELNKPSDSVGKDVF
Description: Inhibition of HIF-PHD2 (unknown origin)

[16] = Partition coefficient, Kp of compound in rat liver to plasma; format: ADME, cell-free; conditions: liver and plasma

EC50 (cells) [µM]	SMILES	further results
0.84	Cc1nc(CC2CCN(c3ccc(-c4ccc(C(C)(C)CO)cc4)cc3)CC2)nc(C(=O)NCC(=O)O)c1O	
0.44	Cc1nc(CC2CCN(c3ccc(-c4ccc(C[C@@H](C)O)cc4)cc3)CC2)nc(C(=O)NCC(=O)O)c1O	Activity [1]: 103 IU/L; AUC at 96 h [2]: 15500 ng·h/mL; AUC at 96 h [3]: 197000 ng·h/mL; Activity [4]: 54 IU/L; Activity [5]: 40 IU/L; EC10 (Cynomolgus monkey): 2.4 mg/kg; Activity [6]: 77 IU/L
3.1	Cc1nc(Cc2cnc(-c3ccc(C(C)(C)C)cc3)s2)nc(C(=O)NCC(=O)O)c1O	
3.2	Cc1nc(CC2CCN(c3ccc(Cc4ccc(C(C)(C)CO)cc4)cc3)CC2)nc(C(=O)NCC(=O)O)c1O	
0.47	Cc1nc(CC2CCN(c3ccc(-c4ccc(CO)cc4)cc3)CC2)nc(C(=O)NCC(=O)O)c1O	
0.49	Cc1nc(CC2CCN(c3ccc(-c4ccc(C[C@H](C)O)cc4)cc3)CC2)nc(C(=O)NCC(=O)O)c1O	Activity [7]: Non-Toxic; Fu [8]: 0.73%; Activity [1]: 97 IU/L; AUC at 96 h [2]: 16200 ng·h/mL; half-life [9]: 1 h; AUC at 96 h [3]: 162000 ng·h/mL; Activity [4]: 52 IU/L; Activity (Rattus norvegicus): Dose-Dependent Effect; AUC at 96 h [10]: 4320 ng·h/mL; AUC at 336 h [11]: 88500 ng·h/mL; AUC at 336 h [12]: 600 ng·h/mL; Cmax [13]: 860 ng/mL; Stability [14]: 79%; Activity [5]: 40 IU/L; logD [15]: 1.2; EC10 (Cynomolgus monkey): 3.5 mg/kg; Activity [6]: 79 IU/L
14	Cc1nc(Cc2ccc(-c3ccccc3)cc2)nc(C(=O)N[C@@H](C)C(=O)O)c1O	
19	Cc1nc(CC2CCCN(c3ccc(C(C)(C)C)cc3)CC2)nc(C(=O)NCC(=O)O)c1O (stereo not given)	
16	CCc1nc(Cc2ccc(-c3ccccc3)cc2)nc(C(=O)NCC(=O)O)c1O	
0.84	Cc1nc(CC2CCN(c3ccc(-c4ccc(C(=O)N(C)C)cc4)cc3)CC2)nc(C(=O)NCC(=O)O)c1O	
	Cc1nc(Cc2ccc(-c3ccccc3)cc2)nc(C(=O)NCC(=O)O)c1C	IC50 (Egl nine homolog 1): > 100 µM
0.55	Cc1nc(CC2CCN(c3ccc(-c4ccc(CC(C)O)cc4)cc3)CC2)nc(C(=O)NCC(=O)O)c1O (racemic)	Kp [16]: 1.5
11	Cc1nc(CCCC2CCN(c3ccc(C(C)(C)C)cc3)CC2)nc(C(=O)NCC(=O)O)c1O	
27	Cc1nc(CC2CCN(c3ccc(C(C)(C)C)cc3)C2)nc(C(=O)NCC(=O)O)c1O (stereo not given)	
2.1	Cc1nc(CC2CCN(c3ccc(Cc4ccc(CC(C)O)cc4)cc3)CC2)nc(C(=O)NCC(=O)O)c1O (stereo not given)	
8.4	Cc1nc(Cc2ccc(-c3ccccc3)cc2)nc(C(=O)NCC(=O)O)c1O	EC10 (Cynomolgus monkey): 2.2 mg/kg
2.7	Cc1nc(CC2CCN(c3ccc(Cc4ccc(CO)cc4)cc3)CC2)nc(C(=O)NCC(=O)O)c1O	
5.8	Cc1nc(CC2CCN(c3ccc(Cc4ccc(C(=O)N(C)C)cc4)cc3)CC2)nc(C(=O)NCC(=O)O)c1O	
11	Cc1nc(CCCCC2CCN(c3ccc(C(C)(C)C)cc3)CC2)nc(C(=O)NCC(=O)O)c1O	
13	Cc1nc(CCC2CCN(c3ccc(C(C)(C)C)cc3)CC2)nc(C(=O)NCC(=O)O)c1O	

SMILES	EC50 (cells) [µM]	further results
Cc1nc(CC2CCN(c3ccc(F)cc3)CC2)nc(C(=O)NCC(=O)O)c1O	9.9	
CCCc1ccc(N2CCC(Cc3nc(C)c(O)c(C(=O)NCC(=O)O)n3)CC2)cc1	1.6	
Cc1nc(CC2CCN(c3ccc(Cl)cc3)CC2)nc(C(=O)NCC(=O)O)c1O	6.9	
Cc1nc(CC2CCN(c3ccc(-c4ccccc4)cc3)CC2)nc(C(=O)NCC(=O)O)c1O	0.42	EC10 (Cynomolgus monkey): 1.1 mg/kg
CSc1nc(CC2CCN(c3ccc(C(C)(C)C)cc3)CC2)nc(C(=O)NCC(=O)O)c1O	3	
CC(C)(C)c1ccc(N2CCC(Cc3nc(C(=O)NCC(=O)O)c(O)c(C(F)F)n3)CC2)cc1	19	
Cc1nc(CC2CCN(c3ccc(C(C)(C)C)cc3)CC2)nc(C(=O)NCC(=O)O)c1O	1.5	
Cc1nc(CC2CCN(c3ccc(Cc4ccccc4)cc3)CC2)nc(C(=O)NCC(=O)O)c1O	0.99	Kp [16]: 9.6; EC10 (Cynomolgus monkey): 0.5 mg/kg
Cc1nc(CC2CCN(c3ccc(C(F)(F)F)cc3)CC2)nc(C(=O)NCC(=O)O)c1O	5.5	
CCCCc1ccc(N2CCC(Cc3nc(C)c(O)c(C(=O)NCC(=O)O)n3)CC2)cc1	1.6	
Cc1ccc(N2CCC(Cc3nc(C)c(O)c(C(=O)NCC(=O)O)n3)CC2)cc1	10	
Cc1nc(Cc2cnc(-c3ccc(C(C)(C)C)cc3)nc2)nc(C(=O)NCC(=O)O)c1O	1.9	
Cc1nc(Cc2ccc(-c3ccc(C(C)(C)C)cc3)cn2)nc(C(=O)NCC(=O)O)c1O	1.9	
Cc1nc(Cc2ccc(-c3ccc(C(C)(C)C)cc3)nc2)nc(C(=O)NCC(=O)O)c1O	1	
Cc1nc(CC2CCN(c3cccc(C(C)(C)C)c3)CC2)nc(C(=O)NCC(=O)O)c1O	6.3	
Cc1nc(CC2CCN(c3cccc(Cc4ccccc4)c3)CC2)nc(C(=O)NCC(=O)O)c1O	3.9	
